Patent US20200129597A1, “MODULATION OF FACTOR Xa INHIBITOR-MEDIATED BLOOD LOSS BY PARTIAL AND TRANSIENT ADMINISTRATION OF ANTIDOTE” (Portola Pharmaceuticals, Inc., priority 2012, published 2020)
Where “and” joins values, the source holds several entries; their conditions need not be identical. Identical values can stand only once.

How the values were obtained:
[1] = Phase 2 trial: plasma concentrations; conditions: apixaban 5 mg bid
Text: (§1) Pharmacodynamic and safety data are collected through Day 48 and PK through Day 10. A chromogenic assay was used to determine anti-fXa activity.

[2] = Total and unbound fXa inhibitor plasma concentration in rats; type: in vivo, rat; conditions: for fraction unbound: intravenous
Method: Total rivaroxaban plasma concentration at different time points from FIG. 10A was determined by LC-MS (solid line).
Similar experiments were carried out using betrixaban and apixaban infusion into anesthetized rats (FIG. 10B and FIG. 10C).
Blood sampling catheter patency was maintained by slow infusion of normal saline. Serial blood samples were obtained during the experimental time course. Total fXa inhibitor concentration was measured by HPLC with tandem mass spectrometry.

[3] = Phase 2 trial: anti-fXa activity (chromogenic assay) after apixaban and r-Antidote; type: in vivo, human; conditions: apixaban 5 mg bid (11 doses)
Text: as §1

[4] = tested on: blood loss; experiment: Mouse tail transection blood loss model; type: in vivo; conditions: for blood loss: 15 min, mean±SD, rivaroxaban 50 mg/kg oral, ASA ~100 mg/kg/day 5 days, treatment as labelled
Method: Mice (n=5-8/group) were first dosed orally with vehicle or aspirin at ˜100 mg/kg/day for 5 days. Rivaroxaban (50 mg/kg) or vehicle (5 mL/kg) was then dosed orally.
For the mouse tail transection blood loss model, mice (male, C57BL/6, Charles River) were first treated with aspirin at ˜100 mg/kg/day for 5 days via drinking water.

[5] = tested on: prothrombin time (PT); experiment: Prothrombin time in human plasma in vitro; type: biochemical; conditions: rivaroxaban 1 μM
Method: (§2) For human in vitro and rat ex vivo experiments, PT was measured using MLA Electra 800 automatic coagulation timer. Innovin was automatically dispensed to plasma samples (100 μL) per manufacturer's instructions. […] For rabbit experiments, PT and aPTT were measured using a Beckman Coulter ACL Elite instrument with HemosIL reagents (available commercially from Instrumentation Laboratories). Whole blood INR (International Normalized Ratio) for animal samples were measured by Hemchron Jr. Signature Cartridges (International Technidyne Corporation) according to manufacturer's instructions.

[6] = tested on: activated partial thromboplastin time (aPTT); experiment: Activated partial thromboplastin time in rabbit liver laceration model; type: in vivo; conditions: for prolongation of aPTT: rivaroxaban 1 mg/kg, 30 min time point
Method: (§3) Anesthetized rabbits were administered vehicle or 1 mg/kg rivaroxaban via IV bolus injection. […] Total rivaroxaban concentration in plasma was measured by LC-MS/MS. […] Anti-fXa activity was measured using a modified chromogenic LMW heparin kit. PT and aPTT was measured using commercial reagents (HemosIL).
as §2
(§4) Rivaroxaban (1 mg/kg) or vehicle was dosed to anesthetized rabbits by IV bolus over 2 minutes via marginal ear vein catheter. […] Serial blood samples were collected at 0, 30, 35, and 50 minutes post rivaroxaban. Measurements included reduction in blood loss, decrease in unbound rivaroxaban in the plasma using equilibrium dialysis method, anti-fXa activity, PT and aPTT. The method for measuring PT is described previously in Example 6.

[7] = tested on: blood loss; experiment: Rabbit liver laceration blood loss model; type: in vivo; conditions: for increase in blood loss compared with vehicle: rivaroxaban 1 mg/kg IV bolus
Method: Rivaroxaban (1 mg/kg) or vehicle was dosed by IV bolus over 2 minutes via marginal ear vein catheter. […] Riva=Rivaroxaban; g=gram
as §3
Anesthetized rabbits were administered vehicle or 1 mg/kg rivaroxaban via IV bolus injection. […] As in the rodent model, total and free rivaroxaban concentration in plasma, anti-fXa activity and PT and activated partial thromboplastin times (aPTT) was measured.
as §4

[8] = Total rivaroxaban concentration in mouse plasma; conditions: following r-Antidote administration (Treat-V)
[9] = tested on: prothrombin time (PT); experiment: Prothrombin time in rabbit liver laceration model; type: in vivo; conditions: for prolongation of PT: rivaroxaban 1 mg/kg, 30 min time point
Method: as §3, §2, §4

[10] = Total and free rivaroxaban concentration in rabbit plasma; type: in vivo; conditions: for concentration at 30 min: male, NZW, rabbit, plasma
Method: as §3, §4

[11] = tested on: blood loss; experiment: Rat tail transection model, r-Antidote bolus plus infusion after enoxaparin or fondaparinux; type: in vivo; conditions: fondaparinux 25 mg/kg; protamine 0.9 mg/rat IV bolus; p=0.39
Method: Enoxaparin (4.5 mg/kg) or vehicle was dosed by IV bolus over 5 min, followed by treatment with vehicle or two different doses of r-Antidotc (2 mg/rat bolus plus 2 mg/hr infusion and 4 mg/rat bolus plus 4 mg/hr infusion) starting at 10 min. […] Protamine was dosed as an IV bolus only (0.9 mg/rat). […] Anti-fXa activity was normalized to the activity of Treat-II at 5 min time point. *** P-value (Treat-III vs. Treat-II)≤0.0001.
The collected blood samples were processed by freezing the samples at −80° C. to lyse erythrocytes. Hemoglobin concentration and corresponding blood volume were quantified spectrophotometrically (Absorbance at 490 nm) from a standard curve constructed with known volumes of blood.

[12] = tested on: blood loss; experiment: Rat tail transection treatment model, r-Antidote given after bleeding initiated; type: in vivo; conditions: enoxaparin-treated group
Method: In a pilot study using this antidote treatment model, anesthetized rats were intravenously (IV) administered either vehicle or enoxaparin (4.5 mg/kg, IV bolus) followed by tail transection at 5 min post-dosing.
Anesthetized rats were administered enoxaparin (4.5 mg/kg) or vehicle by I.V. bolus injection followed by tail transection (2 mm from tip) 5 minutes later. […] The tip of the tail was placed in physiologic saline at 37° C. and blood collected for an additional 45 minutes after tail transection. Blood was lysed by diluting in water and freezing at −80° C. overnight. […] Anti-fXa activity of enoxaparin was measured using a modified chromogenic LMW heparin kit. Tissue factor (TF)-initiated thrombin generation was carried out in human plasma using a fluorogenic thrombin substrate by measurement of change of relative fluorescence unit (RFU) for 10 min following initiation of the reaction.

[13] = upon administration of r-Antidote
[14] = 30 minutes post rivaroxaban (before treatment)

In the case of `COc1ccc(-n2nc(C(N)=O)c3c2C(=O)N(c2ccc(N4CCCCC4=O)cc2)CC3)cc1` [apixaban], the “mean apixaban plasma concentration” value [1] is reported as 474 nM, the fraction unbound ([2]; male, SD, rat, plasma) is reported as 0.0005 and the concentration at 30 min ([2]; male, SD, rat, plasma, iv) is reported as 1400 nM. For the same compound, the fraction unbound at 30 min ([2]; male, SD, rat, plasma, iv) was 0.015, the concentration at 30 min [2, 13] was 4200 nM and the “time of peak anti-fXa activity post last apixaban dose” value [3] was 3 h.

With `CC(=O)Oc1ccccc1C(=O)O` [aspirin] the blood loss [4] was 118 ± 71 µL.

`COc1ccc(NC(=O)c2ccc(C(=N)N(C)C)cc2)c(C(=O)Nc2ccc(Cl)cn2)c1` [betrixaban] showed a fraction unbound ([2]; male, SD, rat, plasma) of 0.003, a concentration at 30 min ([2]; male, SD, rat, plasma, iv) of 200 nM and a fraction unbound at 30 min ([2]; male, SD, rat, plasma, iv) of 0.41. It also gave a concentration at 30 min [2, 13] of 2000 nM.

For `O=C(NC[C@H]1CN(c2ccc(N3CCOCC3=O)cc2)C(=O)O1)c1ccc(Cl)s1` [rivaroxaban], the “effect on prothrombin time” value [5] was “prolongation of prothrombin time”, the “Activated Partial Thromboplastin Times” value ([6]; 0 minutes post rivaroxaban) was 28 ± 5 s and the “Activated Partial Thromboplastin Times” value [6, 14] was 49 ± 8 s. The “Activated Partial Thromboplastin Times” value ([6]; 35 minutes post rivaroxaban) was 48 ± 8 s, the “Activated Partial Thromboplastin Times” value ([6]; 50 minutes post rivaroxaban) was 48 ± 8 s and the “prolongation of aPTT” value [6] was 1.9 fold and 1.8 fold. For the same compound, the “prolongation of aPTT” value ([6]; listed as Rivaroxaban) was 1.9 fold, the blood loss [4] was 216 ± 222 µL and the “increase in blood loss” value ([4]; ASA-treated mice (~100 mg/kg/day, 5 days), single oral Riva 50 mg/kg, Riva+ASA vs. ASA) was 3.4 fold. The “blood loss due to rivaroxaban anticoagulation as share of total blood volume” value ([7]; rivaroxaban 1 mg/kg) was “approximately 10%”, the “increase in blood loss compared with vehicle” value [7] was 3.2 fold and > 3 fold and the “increase in blood loss compared with vehicle” value ([7]; listed as Rivaroxaban) was 3.2 fold. The blood loss ([7]; rivaroxaban group, 15 min collection) was 22.7±9.3 grams, the concentration at 30 min ([2]; male, SD, rat, plasma, iv) was 1400 nM and the fraction unbound at 30 min ([2]; male, SD, rat, plasma, iv) was 0.022. For the same compound, the concentration at 30 min [2, 13] was 1900 nM, the “increase of total rivaroxaban concentration in plasma” value [8] was 7.8 fold and the “Prothrombin Times” value ([9]; 0 minutes post rivaroxaban) was 6.2 ± 0.4 s. For the same compound, the “Prothrombin Times” value [9, 14] was 15.8 ± 1.5 s, the “Prothrombin Times” value ([9]; 35 minutes post rivaroxaban) was 15.0 ± 1.6 s and the “Prothrombin Times” value ([9]; 50 minutes post rivaroxaban) was 13.8 ± 1.3 s. For the same compound, the “prolongation of PT” value [9] was 2.3 fold and 2.5 fold, the “prolongation of PT” value ([9]; listed as Rivaroxaban) was 2.3 fold and the “free (non-protein bound) fraction of rivaroxaban in plasma” value ([10]; after r-Antidote 75 mg/rabbit) was less than 0.5%. The “free (non-protein bound) fraction of rivaroxaban in plasma” value ([10]; before r-Antidote) was 26%, the concentration at 30 min ([10]; intravenous, 1 mg/kg, just prior to treatment, dose group as labelled) was 1200 nM and the concentration at 30 min ([10]; 30 min time point, 1 mg/kg IV) was 1650 nM.

With Protamine the “effect on fondaparinux anticoagulation” value [11] was “no statistically significant effect”.

In the case of enoxaparin, the “share of blood loss occurring within first 10 min prior to treatment” value [12] is reported as roughly 26% and the “total blood loss as share of animal's total blood volume” value [12] is reported as “about 5%”.
